From patent US12624067B2, “Cyclic peptide, cell scaffold material, cell separating material, and medium” (FUJIFILM Corporation, priority 2019, dated 2026)
pKd: −log10 of the molar value. Numbered stars: 1 amine (or outer) side, 2 acyl side, 3 side chain; on linkers, the order of the positions; unused ones are H or OH. Bridge positions count the residues as written; N and C are the ends. Square brackets hold non-standard residues; d marks the D form. Peptide text beside a SMILES is read from it. hCys = N[C@@H](CCS)C(=O)O; Orn = NCCC[C@H](N)C(=O)O; Dab = NCC[C@H](N)C(=O)O; Dap = NC[C@H](N)C(=O)O; X1 = O=C(C[*:1])[*:2]; X2 = O=C(C[*:2])[*:1]

Legend:
[1] = Evaluation of molecule stability (alkali treatment, LC/MS residual rate); type: physicochemical; settings: 500 μM peptide plus equivalent of 1 M sodium hydroxide, 15° C., 20 minutes, LC/MS peak area
Experimental: The molecule stability of the cyclic peptide was evaluated by analyzing the alkali-treated cyclic peptide aqueous solution by liquid chromatography mass spectroscopy (LC/MS).
The alkali treatment was carried out by the following method. A 500 μM cyclic peptide aqueous solution was prepared, an equivalent of 1 M sodium hydroxide aqueous solution was added to this aqueous solution, and the resultant mixture was incubated at 15° C. for 20 minutes to obtain an alkali-treated cyclic peptide aqueous solution. The cyclic peptide residual rate was calculated by setting the total area of all peaks of the cyclic peptide before alkali treatment in LC/MS to 100% and determining the proportion of the total area of all peaks in LC/MS of the alkali-treated cyclic peptide aqueous solution, and the molecule stability was evaluated according to the following evaluation standards. It is preferable that the evaluation result satisfies the evaluation standard A, B, or C.
The conditions of the LC/MS used for the evaluation of molecule stability were set as follows. • LC apparatus: Prominence series (pump, column oven, autosampler, detector) (manufactured by Shimadzu Corporation) • MS detector: LC/MS2010EV (manufactured by Shimadzu Corporation) • Column: Cadenza CD-C18, inner diameter 2.0 mm×length 250 mm, particle size: 3 μm (manufactured by Imtakt Corporation) • Eluent A: a solution (pH 3) containing 10 mM ammonium formate as a solute, where the solvent is 100% water. • Eluent B: a solution (pH 3) containing 10 mM ammonium formate as a solute, where the solvent is acetonitrile/water=90/10. • Flow rate: 0.2 mL/min • Injection volume: 4 μL • Gradient: 0% to 30%: Eluent B (0 to 30 minutes), 100%: Eluent B (30 to 40 minutes), 0%: Eluent B (40 to 60 minutes)(B indicates the eluent B) • Column temperature: 45° C. • Ionization method: electrospray ionization (ESI) positive, ESI negative

[2] = biological target: human integrin αvβ5 (Homo sapiens, UniProt P06756+P18084); assay: Evaluation of integrin binding property (surface plasmon resonance, Biacore 3000, immobilized cyclic peptide); settings: peptide immobilized on CM5 sensor chip; human integrin αvβ5 30-1,000 nM, 25° C., HEPES buffer with 5 mM magnesium chloride; read-out: Integrin binding property (dissociation constant)
Chain of human integrin αvβ5 (P06756 31-889 limits assumed): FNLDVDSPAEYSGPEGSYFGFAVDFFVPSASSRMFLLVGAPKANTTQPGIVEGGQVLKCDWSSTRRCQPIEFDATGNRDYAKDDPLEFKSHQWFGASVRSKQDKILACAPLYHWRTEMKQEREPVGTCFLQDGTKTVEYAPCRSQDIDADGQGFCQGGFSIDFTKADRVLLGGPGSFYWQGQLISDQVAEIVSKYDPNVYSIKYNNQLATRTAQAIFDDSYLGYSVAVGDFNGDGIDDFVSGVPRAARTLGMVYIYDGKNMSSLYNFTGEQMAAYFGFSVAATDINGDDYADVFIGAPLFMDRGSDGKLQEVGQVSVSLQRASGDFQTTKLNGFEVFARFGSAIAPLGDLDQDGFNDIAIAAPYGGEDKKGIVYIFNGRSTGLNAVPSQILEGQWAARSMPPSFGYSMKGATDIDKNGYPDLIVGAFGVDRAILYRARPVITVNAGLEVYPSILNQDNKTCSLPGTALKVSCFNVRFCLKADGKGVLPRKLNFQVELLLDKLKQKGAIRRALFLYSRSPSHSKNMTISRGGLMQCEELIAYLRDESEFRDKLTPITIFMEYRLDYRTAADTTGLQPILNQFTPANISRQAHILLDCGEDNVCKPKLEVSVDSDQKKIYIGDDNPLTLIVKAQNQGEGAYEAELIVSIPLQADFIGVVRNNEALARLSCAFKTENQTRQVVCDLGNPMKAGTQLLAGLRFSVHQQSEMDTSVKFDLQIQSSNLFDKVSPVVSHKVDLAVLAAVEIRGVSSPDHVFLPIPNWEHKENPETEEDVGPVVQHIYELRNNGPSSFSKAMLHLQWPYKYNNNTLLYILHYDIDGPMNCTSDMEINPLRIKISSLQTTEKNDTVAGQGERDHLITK
Chain of human integrin αvβ5 (P06756 891-1048 partner limits assumed): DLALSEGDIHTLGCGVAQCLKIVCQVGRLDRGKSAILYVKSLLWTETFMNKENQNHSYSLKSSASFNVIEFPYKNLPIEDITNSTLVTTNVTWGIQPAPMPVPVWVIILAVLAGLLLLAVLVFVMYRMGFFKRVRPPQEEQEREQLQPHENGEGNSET
Chain of human integrin αvβ5 (P18084 24-799): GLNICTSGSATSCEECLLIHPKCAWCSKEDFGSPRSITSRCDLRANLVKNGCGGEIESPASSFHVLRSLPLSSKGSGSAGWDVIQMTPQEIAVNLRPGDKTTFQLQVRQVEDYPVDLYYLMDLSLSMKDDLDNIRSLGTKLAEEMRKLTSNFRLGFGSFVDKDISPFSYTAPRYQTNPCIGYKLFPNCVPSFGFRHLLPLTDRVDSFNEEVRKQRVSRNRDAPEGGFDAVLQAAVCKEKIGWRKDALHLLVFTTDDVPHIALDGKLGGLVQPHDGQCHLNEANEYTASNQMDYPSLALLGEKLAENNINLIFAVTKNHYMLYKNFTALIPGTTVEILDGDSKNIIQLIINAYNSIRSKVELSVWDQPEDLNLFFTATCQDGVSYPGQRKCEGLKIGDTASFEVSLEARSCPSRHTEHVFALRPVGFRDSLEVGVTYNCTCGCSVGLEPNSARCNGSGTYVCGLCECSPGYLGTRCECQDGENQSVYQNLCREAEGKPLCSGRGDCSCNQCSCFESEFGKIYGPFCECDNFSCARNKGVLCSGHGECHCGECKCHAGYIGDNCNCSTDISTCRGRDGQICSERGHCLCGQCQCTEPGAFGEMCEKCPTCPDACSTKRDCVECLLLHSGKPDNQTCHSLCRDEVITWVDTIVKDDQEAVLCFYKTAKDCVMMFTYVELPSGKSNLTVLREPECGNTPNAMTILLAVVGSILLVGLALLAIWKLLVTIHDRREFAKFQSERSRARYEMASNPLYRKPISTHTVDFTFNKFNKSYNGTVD
Experimental: A commercially available CM5 sensor chip (a carboxymethyl dextran introduction type, manufactured by GE Healthcare) was set in a surface plasmon resonance apparatus (product name: Biacore 3000, manufactured by GE Healthcare), the sensor was stabilized at a flow rate of 10 μL/min of a 4-(2-hydroxyethyl)-1-piperazineethanesulfonic acid (HEPES) buffer solution (20 mM HEPES-HCl, 150 mM NaCl, pH 7.4) for surface plasmon resonance (SPR), and 70 μL of a mixed aqueous solution of 0.2 M 1-(3-dimethylaminopropyl)-3-ethylcarbodiimide (EDC) and 0.04 M N-hydroxysuccinimide (NHS) was added thereto. Then, 300 μL of the sample solution of each of the above cyclic peptides diluted to 0.2 g/L with the HEPES buffer solution was supplied to the sensor chip, blocking treatment was subsequently carried out with an ethanolamine solution, and washing was carried out with a sodium hydroxide aqueous solution, whereby immobilization was carried out. However, only for the cyclic peptide 22, in which the number of lysine residues having an amino group as the immobilizing functional group was 1, the sample solution to be supplied to the sensor chip was set to 5,000 μL instead of 300 μL. Similarly; 70 μL of the mixed aqueous solution of 0.2 M EDC and 0.04 M NHS was added to another flow channel of the same sensor chip without immobilizing the sample, and then blocking treatment and washing treatment were carried out. Hereinafter, the obtained immobilization-treated sensor chip is referred to as an “immobilization-treated sensor chip A”.
After adding human integrin αvβ5 for 10 minutes at 25° C., which was diluted to 30 nM using a HEPES buffer solution to which magnesium chloride was added to 5 mM, in each flow channel of the immobilization-treated sensor chip A prepared in (1) above, the same HEPES buffer solution (containing 5 mM magnesium chloride) was allowed to flow as a running buffer for 30 minutes, and measurement was carried out with Biacore 3000.
Then, a regeneration treatment of removing human integrin αvβ5 was carried out by allowing a 0.5 M EDTA aqueous solution to flow through each flow channel for 10 minutes. Further, the above-described measurement process consisting of adding integrin for 10 minutes, allowing a running buffer to flow for 30 minutes, carrying out measurement with Biacore 3000, and carrying out regeneration treatment with 0.5 M EDTA aqueous solution was carried out in the same manner for 100 nM human integrin αvβ5, 300 nM human integrin αvβ5, and 1,000 nM human integrin αvβ5. Dissociation constant between the cyclic peptide and human integrin αvβ5 was calculated from the difference between the value measured by Biacore 3000 in the flow channel immobilized with the cyclic peptide and the value measured by Biacore 3000 in the flow channel unimmobilized with the cyclic peptide, in a case where each concentration of human integrin αvβ5 was allowed to flow; and the integrin binding property was evaluated according to the following evaluation standards. It is preferable that the evaluation result satisfies the evaluation standard A, B, or C.

Structure (SMILES) | pKd [2] | Molecule stability (cyclic peptide residual rate) [1]
CC[C@H](C)[C@@H]1NC(=O)CSC[C@@H](C(=O)N[C@@H](CCCCN)C(=O)N[C@@H](CCCCN)C(=O)N[C@@H](CCCCN)C(=O)O)NC(=O)[C@H](Cc2ccccc2)NC(=O)[C@@H]2CNC(=O)CSC[C@H](NC1=O)C(=O)N[C@@H](CCCNC(=N)N)C(=O)NCC(=O)N[C@@H](CC(=O)O)C(=O)N2 [Cyclic peptide 6] ({CH2CO}-ICRGD[Dap]FCKKK-OH; linker 2-6 via X1; thioether N-8) | 6.70 to 7.00 | B (The residual rate of the cyclic peptide is 50% or more and less than 70%.)
CC[C@H](C)[C@@H]1NC(=O)CSCC[C@@H](C(=O)N[C@@H](CCCCN)C(=O)N[C@@H](CCCCN)C(=O)N[C@@H](CCCCN)C(=O)O)NC(=O)[C@H](Cc2ccccc2)NC(=O)[C@@H]2CCNC(=O)CSCC[C@H](NC1=O)C(=O)N[C@@H](CCCNC(=N)N)C(=O)NCC(=O)N[C@@H](CC(=O)O)C(=O)N2 [Cyclic peptide 7] ({CH2CO}-I[hCys]RGD[Dab]F[hCys]KKK-OH; linker 2-6 via X1; thioether N-8) | 7.00 to 7.30 | A (The residual rate of the cyclic peptide is 70% or more.)
CC[C@H](C)[C@@H]1NC(=O)CSCC[C@@H](C(=O)N[C@@H](CCCCN)C(=O)N[C@@H](CCCCN)C(=O)N[C@@H](CCCCN)C(=O)O)NC(=O)[C@H](Cc2ccccc2)NC(=O)[C@@H]2CCCNC(=O)CSCC[C@H](NC1=O)C(=O)N[C@@H](CCCNC(=N)N)C(=O)NCC(=O)N[C@@H](CC(=O)O)C(=O)N2 [Cyclic peptide 9] ({CH2CO}-I[hCys]RGD[Orn]F[hCys]KKK-OH; linker 2-6 via X1; thioether N-8) | 7.00 to 7.30 | A (The residual rate of the cyclic peptide is 70% or more.)
CC[C@H](C)[C@@H]1NC(=O)CSC[C@@H](C(=O)N[C@@H](CCCCN)C(=O)N[C@@H](CCCCN)C(=O)N[C@@H](CCCCN)C(=O)O)NC(=O)[C@H](Cc2ccccc2)NC(=O)[C@@H]2CCCNC(=O)CSC[C@H](NC1=O)C(=O)N[C@@H](CCCNC(=N)N)C(=O)NCC(=O)N[C@@H](CC(=O)O)C(=O)N2 [Cyclic peptide 10] ({CH2CO}-ICRGD[Orn]FCKKK-OH; linker 2-6 via X1; thioether N-8) | 7.00 to 7.30 | B (The residual rate of the cyclic peptide is 50% or more and less than 70%.)
CC[C@H](C)[C@@H]1NC(=O)CSC[C@@H](C(=O)N[C@@H](CCCCN)C(=O)N[C@@H](CCCCN)C(=O)N[C@@H](CCCCN)C(=O)O)NC(=O)[C@H](Cc2ccccc2)NC(=O)[C@@H]2CCSCC(=O)NC[C@H](NC1=O)C(=O)N[C@@H](CCCNC(=N)N)C(=O)NCC(=O)N[C@@H](CC(=O)O)C(=O)N2 [Cyclic peptide 13] ({CH2CO}-I[Dap]RGD[hCys]FCKKK-OH; linker 2-6 via X2; thioether N-8) | 7.00 to 7.30 | A (The residual rate of the cyclic peptide is 70% or more.)
CC[C@H](C)[C@@H]1NC(=O)CSCC[C@@H](C(=O)N[C@@H](CCCCN)C(=O)N[C@@H](CCCCN)C(=O)N[C@@H](CCCCN)C(=O)O)NC(=O)[C@H](Cc2ccccc2)NC(=O)[C@@H]2CSCC(=O)NCCC[C@H](NC1=O)C(=O)N[C@@H](CCCNC(=N)N)C(=O)NCC(=O)N[C@@H](CC(=O)O)C(=O)N2 [Cyclic peptide 16] ({CH2CO}-I[Orn]RGDCF[hCys]KKK-OH; linker 2-6 via X2; thioether N-8) | > 7.30 | A (The residual rate of the cyclic peptide is 70% or more.)
CC[C@H](C)[C@@H]1NC(=O)CSC[C@@H](C(=O)N[C@@H](CCCCN)C(=O)N[C@@H](CCCCN)C(=O)N[C@@H](CCCCN)C(=O)O)NC(=O)[C@H](Cc2ccccc2)NC(=O)[C@@H]2CCCCNC(=O)CSCC[C@H](NC1=O)C(=O)N[C@@H](CCCNC(=N)N)C(=O)NCC(=O)N[C@@H](CC(=O)O)C(=O)N2 [Cyclic peptide 17] ({CH2CO}-I[hCys]RGDKFCKKK-OH; linker 2-6 via X1; thioether N-8) | > 7.30 | A (The residual rate of the cyclic peptide is 70% or more.)

Further lines, with some results ahead:

pKd [2] | Structure (SMILES) | Molecule stability (cyclic peptide residual rate) [1]
> 7.30 | CC[C@H](C)[C@@H]1NC(=O)CSC[C@@H](C(=O)N[C@@H](CCCCN)C(=O)N[C@@H](CCCCN)C(=O)N[C@@H](CCCCN)C(=O)O)NC(=O)[C@H](Cc2ccccc2)NC(=O)[C@@H]2CCNC(=O)CSC[C@H](NC1=O)C(=O)N[C@@H](CCCNC(=N)N)C(=O)NCC(=O)N[C@@H](CC(=O)O)C(=O)N2 [Cyclic peptide 8] ({CH2CO}-ICRGD[Dab]FCKKK-OH; linker 2-6 via X1; thioether N-8) | B (The residual rate of the cyclic peptide is 50% or more and less than 70%.)
> 7.30 | CC[C@H](C)[C@@H]1NC(=O)CSCC[C@@H](C(=O)N[C@@H](CCCCN)C(=O)N[C@@H](CCCCN)C(=O)N[C@@H](CCCCN)C(=O)O)NC(=O)[C@H](Cc2ccccc2)NC(=O)[C@@H]2CCCCNC(=O)CSCC[C@H](NC1=O)C(=O)N[C@@H](CCCNC(=N)N)C(=O)NCC(=O)N[C@@H](CC(=O)O)C(=O)N2 [Cyclic peptide 11] ({CH2CO}-I[hCys]RGDKF[hCys]KKK-OH; linker 2-6 via X1; thioether N-8) | A (The residual rate of the cyclic peptide is 70% or more.)
> 7.30 | CC[C@H](C)[C@@H]1NC(=O)CSC[C@@H](C(=O)N[C@@H](CCCCN)C(=O)N[C@@H](CCCCN)C(=O)N[C@@H](CCCCN)C(=O)O)NC(=O)[C@H](Cc2ccccc2)NC(=O)[C@@H]2CCCCNC(=O)CSC[C@H](NC1=O)C(=O)N[C@@H](CCCNC(=N)N)C(=O)NCC(=O)N[C@@H](CC(=O)O)C(=O)N2 [Cyclic peptide 12] ({CH2CO}-ICRGDKFCKKK-OH; linker 2-6 via X1; thioether N-8) | B (The residual rate of the cyclic peptide is 50% or more and less than 70%.)
> 7.30 | CC[C@H](C)[C@@H]1NC(=O)CSCC[C@@H](C(=O)N[C@@H](CCCCN)C(=O)N[C@@H](CCCCN)C(=O)N[C@@H](CCCCN)C(=O)O)NC(=O)[C@H](Cc2ccccc2)NC(=O)[C@@H]2CSCC(=O)NC[C@H](NC1=O)C(=O)N[C@@H](CCCNC(=N)N)C(=O)NCC(=O)N[C@@H](CC(=O)O)C(=O)N2 [Cyclic peptide 14] ({CH2CO}-I[Dap]RGDCF[hCys]KKK-OH; linker 2-6 via X2; thioether N-8) | A (The residual rate of the cyclic peptide is 70% or more.)
> 7.30 | CC[C@H](C)[C@@H]1NC(=O)CSC[C@@H](C(=O)N[C@@H](CCCCN)C(=O)N[C@@H](CCCCN)C(=O)N[C@@H](CCCCN)C(=O)O)NC(=O)[C@H](Cc2ccccc2)NC(=O)[C@@H]2CCSCC(=O)NCCC[C@H](NC1=O)C(=O)N[C@@H](CCCNC(=N)N)C(=O)NCC(=O)N[C@@H](CC(=O)O)C(=O)N2 [Cyclic peptide 15] ({CH2CO}-I[Orn]RGD[hCys]FCKKK-OH; linker 2-6 via X2; thioether N-8) | A (The residual rate of the cyclic peptide is 70% or more.)
